The results in this text go back to patent publication US5814627A, “3, 5-disubstituted and 3, 4, 5-trisubstituted 2-isoxazolines and isoxazoles, process for their preparation and their use as pharmaceuticals” (Hoechst Aktienegesellschaft, priority 1994, dated 1998).

Experiment [1] deals with cyclooxygenase-dependent thrombocyte aggregation. The experiment can be described thus: Test 5: Cyclooxygenase-dependent thrombocyte aggregation. Type of experiment: cell-based, human. The following applies: Homo sapiens, arachidonic acid as inducer, read-out: Test 5 residual activity (cyclooxygenase-dependent thrombocyte aggregation), percent of control. In short, it runs like this: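 Citrated human platelet-rich plasma was preincubated 10 min at 37 °C with test substance diluted 1:30 in 50 mM Tris-HCl pH 8.0, 90 mM NaCl. Aggregation was triggered with arachidonic acid (5 mg/ml, 20 μl) under 800 rpm stirring in an aggregometer. Values are tested concentration (μM) and residual activity as % of control.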

Experiment [2] deals with PAF-induced asthma attack. The experiment is described as follows: Test 7: antiasthmatic effect, PAF-induced asthma attack. Type of experiment: in vivo. Particulars: Cavia porcellus; i.d., 15 minutes before PAF; guinea pig. On the procedure:
Test 7: Testing for antiasthmatic effect
Anesthetized guinea pigs, which were cannulated in the jugular vein to allow injection of the PAF, were used for testing for antiasthmatic effect. The test preparations were also administered intravenously (i.v.), 5 min before PAF administration, into the blood stream through the same venous cannula, or else administered intraduodenally (i.d.), 15 minutes before the PAF, through an opening in the duodenum which had been installed and cannulated surgically. The bronchial width was recorded in an overflow pneumonogram before and after administering the preparation. Evaluation: ED50 in mg/kg i.d. as compared with the PAF-induced asthma attack.

Experiment [3] has as its system adjuvant/arthritis model. The experiment is described as follows: Test 6: antiarthritic effect in the adjuvant/arthritis model. It counts as in vivo, rat (Wistar-Lewis). Particulars: Rattus norvegicus, po, 408 h, daily for 17 days, rat, read-out: Test 6 Paw volume (% inhibition); for inhibition in vivo at 50 mg/kg: 50 mg/kg orally; for inhibition in vivo at 25 mg/kg: 25 mg/kg orally.

Experiment [4] concerns tumor cell line 20-10-5S (hybridoma cell line). The experiment can be described thus: Test 8: Inhibition of tumor cell proliferation. It counts as cell-based. The following applies: 48 h + 16 h tritiated thymidine incorporation; 20-10-5S cells.
Experiment [5] has as its system leukotriene B4 synthesis in white blood cells. The experiment is described as follows: Test 3: LTB4 formation by white blood cells. Type of experiment: cell-based. Particulars: Homo sapiens, read-out: Test 3 residual activity (LTB4 formation), percent of control. On the procedure: TEST 3. LTB4 formation by white blood cells
Isolation of white blood cells:
40 ml of human blood were mixed with 8 ml of 6% dextran solution (dextran, mw: 480,000 in PM16). After one hour at room temperature, the supernatant,which was composed of white blood cells, was removed, diluted with an equal volume of PM16, and centrifuged for 15 minutes at 300×g (1600 rpm). The sediment was next resuspended in approximately 5-6 ml of PM16 and, once the cell count had been determined in a Coulter Counter, adjusted to 10^7 cells/ml.
The test mixture comprised 0.24 ml of cell suspension, 0.03 ml of 20 mM CaCl2 /5 mM MgCl2 and 5 μl of test substance. Following 15 minutes of preincubation at 37° C., the reaction was started with 0.03 ml of A23187/glutathione (100 μg of A23187/ml; 15.4 μg of glutathione/ml). The incubation was terminated after 5 minutes at 37° C. by immediate cooling of the samples down to 0° C. After centrifuging for 2 minutes in an Eppendorff Centrifuge (0° C.), the supernatant was removed and examined chromatographically.
High pressure liquid chromatography (HPLC): the HPLC equipment comprises a Kratos pump (Spectro-flow 400), a cooled automatic BT 7041 sample injector (Biotronik) having a 75 μl sample loop, a Nucleosil C18 column (100*3 mm, 5 μm particles of Chrompack), a UV detector (Kratos) Spectroflow 757 (wavelength: 280 nm, measurement range: 0.1 AUFS, time constant: 0.5 s) and a Spectra Physics integrator (SP 4270). The eluent (725 ml of methanol, 275 ml of water and 0.1 ml of acetic acid) was supplied at a flow rate of 0.7 ml/minute and at a pressure of about 100 bar.
When doing this, the measurement range which has been set can be examined and altered if necessary. It is also vital to measure the test substances at the particular test concentration (e.g.: 10^-5 M) in PM16 before the cell incubation, since the test substances might conceal the LTB4 peak. If this is the case, a lower concentration must be selected.
(§1) The values in the table show the concentration of the test substance which was employed in μM and, besides this, the residual activity measured in percent based on the control, which was set to be 100%. The interleukin is additionally indicated in test 4.

In experiment [6] the test system is polymorphonuclear leucocytes (PMNL). The experiment can be described thus: Test 2: Release of oxygen radicals from human PMNL. Type of experiment: cell-based. The following applies: read-out: Test 2 residual activity (release of oxygen radicals), percent of control. On the procedure:
Isolation of polymorphonuclear leucocytes (PMNL) from human peripheral blood for carrying out tests 1 and 2 10 ml of human blood were diluted with 10 ml of HBSS (Serva) and underlaid with 15 ml of Lymphoprep (Dr. Molter GmbH, Heidelberg). The sample was then centrifuged for 25 minutes at 400×g (1600 revolutions per minute, Minifuge 2, Heraeus, Osterode). […] A white ring, composed of mononuclear cells, is located between these two phases. The lowermost phase is composed of erythrocytes which are covered with a white layer of PMNL. The uppermost phase, and also the Lymphoprep and the white ring, were carefully removed using a syringe. The remaining sediment was carefully resuspended in 15 ml of 3% dextran in PM16 (mw: 485,000, Sigma, Deisenhofen). The suspension was then left to stand at room temperature for one hour. During this time, the erythrocytes sedimented while the PMNL remained in the supernatant. The supernatant was removed, diluted with an approximately equal volume of PM16, and centrifuged for 15 minutes at 400×g. Should the PMNL sediment be heavily contaminated with erythrocytes, it is necessary to carry out a hypotonic lysis. To do this, the sediment was resuspended in 750 μl of water. After exactly 15 seconds, the suspension was diluted with approximately 7 ml of PM16 and centrifuged for 10 minutes at 400×g. If necessary, this lysis was repeated once more. Otherwise, the PMNL sediment was resuspended in a suitable medium.
The PMNL were resuspended (5·10^6 cells/ml) in Dulbecco's PBS, supplemented with 7.5 mM glucose. Care must be taken to ensure that the PMNL are free of erythrocytes. 100 μl of PMNL, 700 μl of PBS+glucose and 100 μl of cytochrome C (9.38 mg/ml of PBS+glucose) were mixed in a semi-microcuvette. 100 μl of PMNL, 500 μl of PBS+glucose, 100 μl of cytochalasin B ([…]), 100 μl of TNF (0.05 ng) and 100 μl of cytochrome C (9.38 mg/ml of PBS+glucose) were mixed for the fMLP-induced release of oxygen. Measurements were made in a double-beam photometer meter (Perkin-Elmer 552 S) at a wavelength of 550 nm. The measurement range is 0-1 extinction units. The cuvettes were temperature-equilibrated to 37° C. The reference cuvette additionally contained 10 μl of SOD (6 mg of SOD/ml of PBS+glucose). Following a preincubation of 5 minutes, the reaction is started with 100 μl of inducer. The reaction is started with 1·10^-7 mol of fMLP.
as §1

Molecules are shown by their SMILES. Where a name gives a salt, the structure may show the parent alone.

As a reminder, the ED50 is the dose that gives a 50% effect, or the effect in half of the subjects. A lower ED50 goes with an effect at a small dose. A word on the IC50: it is the concentration needed to halve the response being measured.

With `COP(=O)(OC)C1CC(c2cc(C(C)(C)C)c(O)c(C(C)(C)C)c2)=NO1` (stereo not shown) [Example 5], the activity at 100 µM in experiment [1] is 98%. This molecule also gave an ED50 in experiment [2] of less than 10 mg/kg.

In the case of `CC(C)(C)c1cc(C2=NOC(CO)C2)cc(C(C)(C)C)c1O` (stereo not shown) [Example 1, 3-(4-Hydroxy-3,5-di-tert-butylphenyl)-5-hydroxymethyl-2-isoxazoline], in experiment [3], the inhibition in vivo at 50 mg/kg worked out at 70%. For the same molecule, the IC50 in experiment [4] lay in the range of 5 to 10 µM. Besides, the results for the activity at 10 µM in experiment [1] and in experiment [5] were 93% and 92%, respectively. For the same molecule, in experiment [2], the ED50 is 10 to 50 mg/kg.

Consider `C[C@H](O)[C@@H]1CC(c2cc(C(C)(C)C)c(O)c(C(C)(C)C)c2)=NO1` (relative stereo) [Example 20], for which, in experiment [3], the inhibition in vivo at 25 mg/kg turned out to be 67%. Also, the half-maximal inhibitory concentration (IC50) in experiment [4] was less than 5 µM. In addition, the activity at 10 µM in experiment [1] stood at 100%. Also, the ED50 in experiment [2] is approximately 50 mg/kg.

In the case of `Cc1cc(CNC(=O)C2(C)CC(c3cc(C(C)(C)C)c(O)c(C(C)(C)C)c3)=NO2)cc(C)c1O` (stereo not shown) [Example 14], the activity at 10 µM in experiment [1] is 100%. In addition, the ED50 in experiment [2] was in the range of 10 to 50 mg/kg.

For the molecule `CC(OC(=O)[C@@H](N)Cc1ccccc1)c1cc(-c2cc(C(C)(C)C)c(O)c(C(C)(C)C)c2)no1` (stereo partly drawn) [Example 70, L-Phenylalanine-1-(3-(4-hydroxy-3,5-di-tert-butylphenyl)isoxazol-5-yl)ethylester hydrochloride], in experiment [3], the inhibition in vivo at 25 mg/kg came out at 59%. Further, the IC50 in experiment [4] was found to be 5 µM. Further, in experiment [6], the activity at 10 µM turned out to be 22%.

`CC(OC(=O)[C@@H](N)Cc1ccccc1)C1CC(c2cc(C(C)(C)C)c(O)c(C(C)(C)C)c2)=NO1` (stereo partly drawn) [Example 73, L-Phenylalanine-1-(3-(4-hydroxy-3,5-di-tert-butylphenyl)-2-isoxazolin-5-yl)ethyl ester hydrochloride]: the inhibition in vivo at 50 mg/kg in experiment [3] is 73%. Moreover, in experiment [6] (1 μM), the activity at 1 µM was determined as 100%. For the same molecule, the activity at 10 µM in experiment [6] was 9%. In experiment [1] (25 μM), the activity at 25 µM was 100%.

For `COP(=O)(O)C1CC(c2cc(C(C)(C)C)c(O)c(C(C)(C)C)c2)=NO1` (stereo not shown) [Example 7, Monomethyl 3-(4-hydroxy-3,5-di-tert-butylphenyl)-2-isoxazolin-5-ylphosphonate], the activity at 100 µM in experiment [1] is 95%. Also, the ED50 in experiment [2] is 10 to 30 mg/kg.

As to `C/C(O)=C(\C#N)C(=O)NCc1cc(-c2cc(C(C)(C)C)c(O)c(C(C)(C)C)c2)no1` [Example 53, 2-Cyano-3-hydroxybut-2-enecarboxylic acid(3-(4-hydroxy-3,5-di-tert-butylphenyl)isoxazol-5-ylmethyl)amide], the inhibition in vivo at 25 mg/kg in experiment [3] came out at 48%. For the same molecule, in experiment [4], the IC50 lay in the range of 8 to 10 µM. The molecule further registered an ED50 in experiment [2] of 10 to 50 mg/kg.

In the case of `CC(C)(C)c1cc(C2=NOC(c3ccsc3)C2)cc(C(C)(C)C)c1O` (stereo not shown) [Example 8], the inhibition in vivo at 50 mg/kg in experiment [3] was determined as 67%. In experiment [4], the IC50 was less than 5 µM. In experiment [1], the activity at 100 µM turned out to be 91%. For the same molecule, in experiment [2], the ED50 was approximately 10 mg/kg. Moreover, in experiment [5] (1 μM), the activity at 1 µM is 93%. For the same molecule, in experiment [5], the activity at 10 µM amounted to 15%.

`CC(C)(C)c1cc(-c2cc(CN)on2)cc(C(C)(C)C)c1O` [Example 48]: the inhibition in vivo at 50 mg/kg in experiment [3] was 60%. Besides, the IC50 in experiment [4] lay within 5 to 10 µM. Besides, the ED50 in experiment [2] lay within 10 to 50 mg/kg.
